Measured values: ChEMBL document CHEMBL4145608, “Dehydrodiconiferyl Alcohol Inhibits Osteoclast Differentiation and Ovariectomy-Induced Bone Loss through Acting as an Estrogen Receptor Agonist” (J Nat Prod, 2018)
Active and inactive are the calls of the source. The rule behind the calls is not given here.

Assays:
RAW264.7 [1] = assay: Inhibition of RANKL-induced osteoclast differentiation in mouse RAW264.7 cells assessed as decrease in TRAP activity at 10 to 40 uM after 5 days by microscopy; type: functional, cell-based
Mus musculus [2] = assay: Anti-osteoporotic activity in Balb/c mouse assessed as inhibition of OVX-induced serum NTx level at 25 to 100 mg/kg, ip administered for 4 weeks daily by ELISA; type: functional, organism-based
[3] = biological target: MAP kinase p38 (Mus musculus) (UniProt P47811+O08911+Q9WUI1+Q9Z1B7); assay: Inhibition of p38 MAPK signaling pathway in mouse RAW264.7 cells assessed as reduction in RANKL-induced p38 phosphorylation at 10 to 40 uM after 30 mins by Western blot method; type: cell-based
RAW264.7 [4] = assay: Inhibition of RANKL-induced osteoclast differentiation in mouse RAW264.7 cells harboring ERalpha siRNA assessed as decrease in c-Fos mRNA level at 20 uM after 24 hrs by qRT-PCR method; type: functional, cell-based
RAW264.7 [5] = assay: Inhibition of RANKL-induced osteoclast differentiation in mouse RAW264.7 cells assessed as decrease in TRAP activity at 20 uM after 5 days in presence of ERbeta antagonist PHTPP by microscopy; type: functional, cell-based
RAW264.7 [6] = assay: Inhibition of RANKL-induced osteoclast differentiation in mouse RAW264.7 cells assessed as decrease in TRAP mRNA level at 20 uM after 24 hrs in presence of ERalpha antagonist MPP by qRT-PCR method; type: functional, cell-based
RAW264.7 [7] = assay: Inhibition of NF-kappaB/p38 MAPK signaling pathway in mouse RAW264.7 cells assessed as reduction in RANKL-induced NFATc1 mRNA level after 24 hrs by qRT-PCR method; type: cell-based
RAW264.7 [8] = assay: Inhibition of NF-kappaB/p38 MAPK signaling pathway in mouse RAW264.7 cells assessed as reduction in RANKL-induced NFATc1 protein expression level after 24 hrs by Western blot method; type: cell-based
RAW264.7 [9] = assay: Inhibition of RANKL-induced osteoclast differentiation in mouse RAW264.7 cells harboring ERbeta siRNA assessed as decrease in number of TRAP-positive multinucleated cells at 20 uM after 5 days by microscopy; type: functional, cell-based
RAW264.7 [10] = assay: Inhibition of NF-kappaB/p38 MAPK signaling pathway in mouse RAW264.7 cells assessed as reduction in RANKL-induced MMP-9 mRNA level after 24 hrs by qRT-PCR method; type: cell-based
Mus musculus [11] = assay: Anti-osteoporotic activity in Balb/c mouse assessed as inhibition of OVX-mediated decrease in bone marrow density in femur at 25 to 100 mg/kg, ip administered for 4 weeks daily by microcomputed tomography; type: functional, organism-based
Mus musculus [12] = assay: Anti-osteoporotic activity in Balb/c mouse assessed as inhibition of OVX-induced serum CTx level at 25 to 100 mg/kg, ip administered for 4 weeks daily by ELISA; type: functional, organism-based
Mus musculus [13] = assay: Anti-osteoporotic activity in Balb/c mouse assessed as decrease in OVX-induced trabecular spacing in femur at 25 to 100 mg/kg, ip administered for 4 weeks daily by microcomputed tomography; type: functional, organism-based
Mus musculus [14] = assay: Anti-osteoporotic activity in Balb/c mouse assessed as inhibition of OVX-mediated decrease in trabecular thickness in femur at 25 to 100 mg/kg, ip administered for 4 weeks daily by microcomputed tomography; type: functional, organism-based
RAW264.7 [15] = assay: Inhibition of RANKL-induced osteoclast differentiation in mouse RAW264.7 cells assessed as decrease in size of TRAP-positive multinucleated cells after 5 days by microscopy; type: functional, cell-based
RAW264.7 [16] = assay: Inhibition of NF-kappaB signaling pathway in mouse RAW264.7 cells assessed as reduction in RANKL-induced IKKbeta phosphorylation at 10 to 40 uM after 30 mins by Western blot method; type: cell-based
Mus musculus [17] = assay: Anti-osteoporotic activity in Balb/c mouse assessed as decrease in OVX-induced structure model index in femur at 25 to 100 mg/kg, ip administered for 4 weeks daily by microcomputed tomography; type: functional, organism-based
RAW264.7 [18] = assay: Inhibition of RANKL-induced osteoclast differentiation in mouse RAW264.7 cells harboring ERbeta siRNA assessed as decrease in c-Fos mRNA level at 20 uM after 24 hrs by qRT-PCR method; type: functional, cell-based
Mus musculus [19] = assay: Anti-osteoporotic activity in Balb/c mouse assessed as inhibition of OVX-mediated decrease in trabecular bone volume in femur at 25 to 100 mg/kg, ip administered for 4 weeks daily by microcomputed tomography; type: functional, organism-based
Mus musculus [20] = assay: Anti-osteoporotic activity in Balb/c mouse assessed as inhibition of OVX-induced NFATc1 mRNA expression level in bone marrow at 25 to 100 mg/kg, ip administered for 4 weeks daily by qRT-PCR method; type: functional, organism-based
RAW264.7 [21] = assay: Inhibition of RANKL-induced osteoclast differentiation in mouse RAW264.7 cells harboring ERalpha siRNA assessed as decrease in TRAP activity at 20 uM after 5 days by microscopy; type: functional, cell-based
RAW264.7 [22] = assay: Inhibition of RANKL-induced osteoclast differentiation in mouse RAW264.7 cells assessed as TRAP activity after 5 days in presence of CAMKKbeta inhibitor STO609; type: functional, cell-based
Mus musculus [23] = assay: Anti-osteoporotic activity in Balb/c mouse assessed as inhibition of OVX-induced cathepsin K mRNA expression level in bone marrow at 25 to 100 mg/kg, ip administered for 4 weeks daily by qRT-PCR method; type: functional, organism-based
RAW264.7 [24] = assay: Inhibition of RANKL-induced osteoclast differentiation in mouse RAW264.7 cells assessed as decrease in number of TRAP-positive multinucleated cells at 20 uM after 5 days in presence of ERalpha antagonist MPP by microscopy; type: functional, cell-based
RAW264.7 [25] = assay: Inhibition of RANKL-induced osteoclast differentiation in mouse RAW264.7 cells harboring AMPKalpha1 siRNA assessed as decrease in TRAP activity at 10 to 40 uM after 5 days by microscopy; type: functional, cell-based
RAW264.7 [26] = assay: Inhibition of RANKL-induced osteoclast differentiation in mouse RAW264.7 cells assessed as decrease in size of TRAP-positive multinucleated cells at 20 uM after 5 days in presence of ERbeta antagonist PHTPP by microscopy; type: functional, cell-based
[27] = biological target: Calcium/calmodulin-dependent protein kinase kinase 2 (Mus musculus) (UniProt Q8C078); assay: Inhibition of RANKL-induced CAMKKbeta phosphorylation in mouse RAW264.7 cells at 10 to 40 uM after 24 hrs by Western blot analysis; type: cell-based
Calcium/calmodulin-dependent protein kinase kinase 2 (Mus musculus), sequence (Q8C078 2-588 limits assumed): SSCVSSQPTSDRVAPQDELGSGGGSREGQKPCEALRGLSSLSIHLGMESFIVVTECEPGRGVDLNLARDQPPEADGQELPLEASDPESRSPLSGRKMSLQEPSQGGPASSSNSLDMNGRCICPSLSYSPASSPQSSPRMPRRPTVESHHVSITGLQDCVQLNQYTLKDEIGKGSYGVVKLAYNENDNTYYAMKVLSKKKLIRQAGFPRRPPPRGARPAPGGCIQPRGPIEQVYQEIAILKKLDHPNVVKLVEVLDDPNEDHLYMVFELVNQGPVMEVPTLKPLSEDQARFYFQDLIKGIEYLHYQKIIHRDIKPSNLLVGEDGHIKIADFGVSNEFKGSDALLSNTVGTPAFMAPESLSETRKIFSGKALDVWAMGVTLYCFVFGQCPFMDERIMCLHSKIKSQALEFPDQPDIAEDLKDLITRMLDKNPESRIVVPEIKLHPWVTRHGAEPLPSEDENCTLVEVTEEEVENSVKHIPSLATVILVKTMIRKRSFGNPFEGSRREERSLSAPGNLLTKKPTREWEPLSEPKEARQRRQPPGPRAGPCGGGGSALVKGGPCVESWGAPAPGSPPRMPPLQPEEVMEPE

RAW264.7 [28] = assay: Inhibition of NF-kappaB/p38 MAPK signaling pathway in mouse RAW264.7 cells assessed as reduction in RANKL-induced c-Fos protein expression level after 24 hrs by Western blot method; type: cell-based
RAW264.7 [29] = assay: Inhibition of RANKL-induced osteoclast differentiation in mouse RAW264.7 cells assessed as TRAP activity after 5 days in presence of estrogen receptor antagonist fulvestrant; type: functional, cell-based
Mus musculus [30] = assay: Anti-osteoporotic activity in Balb/c mouse assessed as inhibition of OVX-induced c-Fos mRNA expression level in bone marrow at 25 to 100 mg/kg, ip administered for 4 weeks daily by qRT-PCR method; type: functional, organism-based
RAW264.7 [31] = assay: Inhibition of RANKL-induced PKA phosphorylation in mouse RAW264.7 cells at 10 to 40 uM after 24 hrs by Western blot analysis; type: cell-based

- inhibition [3]: Active
- inhibition [27]: inactive
SMILES: COc1cc(C2Oc3c(OC)cc(/C=C/CO)cc3C2CO)ccc1O (stereo unspecified)
- inhibition (RAW264.7 [1]): Active
- inhibition (Mus musculus [2]): Active
- inhibition (RAW264.7 [4]): inactive
- inhibition (RAW264.7 [5]): Active
- inhibition (RAW264.7 [6]): inactive
- inhibition (RAW264.7 [7]): Dose-dependent effect
- inhibition (RAW264.7 [8]): Dose-dependent effect
- inhibition (RAW264.7 [9]): Active
- inhibition (RAW264.7 [10]): Dose-dependent effect
- inhibition (Mus musculus [11]): Active
- inhibition (Mus musculus [12]): Active
- Activity (Mus musculus [13]): Active
- inhibition (Mus musculus [14]): Active
- inhibition (RAW264.7 [15]): Dose-dependent effect
- inhibition (RAW264.7 [16]): Active
- Activity (Mus musculus [17]): Active
- inhibition (RAW264.7 [18]): Active
- inhibition (Mus musculus [19]): Active
- inhibition (Mus musculus [20]): Active
- inhibition (RAW264.7 [21]): inactive
- inhibition (RAW264.7 [22]): Active
- inhibition (Mus musculus [23]): Active
- inhibition (RAW264.7 [24]): inactive
- inhibition (RAW264.7 [25]): inactive
- inhibition (RAW264.7 [26]): Active
- inhibition (RAW264.7 [28]): Dose-dependent effect
- inhibition (RAW264.7 [29]): inactive
- inhibition (Mus musculus [30]): Active
- inhibition (RAW264.7 [31]): inactive
